Where two headings read alike, the source gives them in different places.
How the values were obtained:
[1] = Iron-chelating ability by spectrophotometric analysis / transmetalation; format: physicochemical; details: for logβ124(Fe): Fe^3+, same conditions as Ga^3+ systems
Description: Compounds 4 and 5 were selected to evaluate iron-chelating ability by spectrophotometric analysis in the same conditions as the ones applied to carry out investigations on Ga^3+ systems. The calculated logβ124(Fe) values were 56.2 (2) and 58.6 (4) for 4 and 5, respectively. From the difference between the logβ values of the complexes with two metal ions, it is possible to calculate the apparent stability constant K (logK = logβ124(Fe) − logβ124(Ga)) associated with the transmetalation reaction (Equation (1)). (1) Fe^3++[Ga(H2L)2]^+ ⇆ […]+[Fe(H2L)2]^+
UV–visible spectra were recorded with a JASCO V-570 UV/Vis/NIR spectrophotometer at 298 K in the 250–600 nm spectral range employing quartz cells (1 cm optical path). To perform spectrophotometric titrations, ligands (denoted generally as L in the following) were dissolved in methanol to give a mother solution (2.50 mM), that was then diluted in water in order to obtain a final concentration of 50 μM. The metal/ligand (M:L) solutions were obtained by adding appropriate quantities of Ga(NO3)3 as methanol solutions (5–10 mM) in order to obtain the metal-to-ligand 1:1 molar ratio (L = 50 μM and V = 25 mL). For both L and M:L systems, pH (initial value of about 5) was varied by adding small amounts (<1 μL) of concentrated NaOH (4 M) up to ca. pH 11, thus to consider volume variations negligible. […] The overall protonation constants (logβqr) and the overall stability constants of metal complexes (logβpqr) were evaluated from spectrophotometric data. […] The quantities are obtained by performing error propagation calculation from the experimental errors onto the parameters. […] The error on logβ is calculated as follows: σ(logβ) = [log(β + σ) − log(β − σ)]/2.
Hydroxide species, such as [Ga(OH)2]^+, were taken into account for calculations. The hydrolysis constants for Ga^3+ are as follows: logβ1,1,0 = −3.93; logβ2,1,0 = −7.73; logβ3,1,0 = −12.38; logβ4,1,0 = −15.96; logβ32,13,0 = −66.3; logβ3,1,0(s) = −3.54 [43]; pGa is defined as (−log[Ga^3+]free) and is calculated at specific conditions (Ga^3+total = 1 μM, Ltotal = 10 μM, pH 7.4, 25 °C). […]

[2] = test system: HCT116 colon carcinoma cells; assay: MTT cell viability assay; format: cell-based, Human; details: mean
Experimental: Human colorectal carcinoma HCT116 cells (#91091005, ECACC) were grown in an IMDM medium (Biowest) supplemented with 2 mM glutamine, 100 IU/mL penicillin, 100 μg/mL streptomycin and 10% FBS (Gibco). The cell lines were grown at 37 °C in a humidified incubator containing 5% CO2. The cells were verified to be mycoplasma-free and passaged < 3 months. The inhibition of cell proliferation was measured by colorimetric 3-(4,5-dimethylthiazol-2-yl)-2,5-diphenyltetrazolium bromide (MTT) assay. GI50 concentrations were determined using the CompuSyn software version 1.0 (ComboSyn, Inc., Paramus, NJ USA) (free download via www.combosyn.com, accessed on 30 May 2022), and statistical analyses were performed using the GraphPad PRISM software (version 6.01 for Windows, GraphPad Software, San Diego, California USA GraphPad Prism) using unpaired t-test. Data were considered to be statistically significant if p < 0.05 (*), p < 0.01 (**), p < 0.001(***) and p < 0.0001 (****).

[3] = Spectrophotometric pH titrations of ligands (protonation constants, pKa); format: physicochemical; details: 298 K; for logβ011 overall protonation constant / logβ012 overall protonation constant / logβ013 overall protonation constant: HypSpec, spectrophotometric data; for pKa: aqueous solution (methanol stock diluted in water)
Experimental: (§1) UV–visible spectra were recorded with a JASCO V-570 UV/Vis/NIR spectrophotometer at 298 K in the 250–600 nm spectral range employing quartz cells (1 cm optical path). To perform spectrophotometric titrations, ligands (denoted generally as L in the following) were dissolved in methanol to give a mother solution (2.50 mM), that was then diluted in water in order to obtain a final concentration of 50 μM. The metal/ligand (M:L) solutions were obtained by adding appropriate quantities of Ga(NO3)3 as methanol solutions (5–10 mM) in order to obtain the metal-to-ligand 1:1 molar ratio (L = 50 μM and V = 25 mL). For both L and M:L systems, pH (initial value of about 5) was varied by adding small amounts (<1 μL) of concentrated NaOH (4 M) up to ca. pH 11, thus to consider volume variations negligible. To evaluate the complexation ratio, constant additions of the M solution (10 µL each time, M = 10^–2 M) were dropped into the ligand solution (V = 25 mL, L = 50 μM) using a micropipette in order to reach different M:L molar ratios. A constant ionic strength (NaNO3, 0.1 M) was maintained in all experiments. Spectrophotometric investigations of iron(III) systems were performed in the same conditions; the Fe^3+ solution was freshly prepared in methanol starting from Fe(NO3)3·9H2O. The overall protonation constants (logβqr) and the overall stability constants of metal complexes (logβpqr) were evaluated from spectrophotometric data. The stability constants (βpqr), defined by the following equations:(3) pM^m++qL^l^−+rH^+⇌MpLqHr(mp−lq+r) (4) βpqr=[MpLqHr(mp−lq+r)]/[M^m+]^p·[L^l−]^q·[H^+]^r where L is the ligand in the completely dissociated form and H is proton, were refined using least-squares calculation in HypSpec. The results of least-squares calculation include the standard deviations and correlation coefficients of the refined parameters. The quantities are obtained by performing error propagation calculation from the experimental errors onto the parameters. The stability constant refinement furnishes least-squares estimates of the standard deviation, σ, of the stability constant β. The error on logβ is calculated as follows: σ(logβ) = [log(β + σ) − log(β − σ)]/2.

[4] = DPPH radical-scavenging assay; details: free ligand
Experimental: The antioxidant activity of compounds 4 and 5 and their Ga^3+ metal complexes at the M:L 1:1 and 1:2 molar ratio was evaluated in terms of hydrogen-donating or radical scavenging ability using a stable DPPH radical, 1,1-diphenyl-2-picrylhydrazyl radical, following the procedure previously reported. The percentage of inhibition (%In) of the DPPH radical by each sample was calculated according to the following formula: %In=A0−At/A0×100 where A0 represents the absorbance of the control (DPPH radical) at time 0, while At refers to the absorbance of the mixture antioxidant/DPPH at time t (120 min). Values of absorbance were corrected considering volume dilution. All the determinations were performed in duplicate.

[5] = Kinetic stability of ligands in simulated physiological conditions (UV-Vis); format: physicochemical; details: for Stability: percentage of the residual ligand after 4 h: PBS, pH 7.4, 37 °C in darkness; for Stability ranking (residual ligand after 4 h): rank among the 7 ligands, 1 = most stable
Experimental: The chemical stability of ligands and metal complexes at the M:L 1:L molar ratio at 37 °C in darkness was evaluated by UV−Vis spectroscopy as a change in absorbance in the 250−600 nm range over an overall period of 8 h. Solutions (5.0 × 10^–5 mol L^–1) of the ligands were prepared in 0.1 mol L^–1 phosphate-buffered solution (PBS) at pH 7.4. Spectra were recorded every 30 min. All profiles were linearized as the hyperbolic function defined by Equation (2), which represents an empirical model that describes drug decomposition or release well [42]:(2) t/f%=at+b where f% is the percentage of the residual compound at time t (min) referred to the starting concentration at time zero determined by reading the absorbance at λmax.

[6] = Spectrophotometric pH-metric titrations of Ga^3+:ligand systems (stability constants, pGa, speciation); format: physicochemical; details: for log β 112 overall stability constant (Ga^3+) / log β 124 overall stability constant (Ga^3+) / logK11 apparent formation constant (Ga^3+, M:L 1:1) / logK12 apparent formation constant (Ga^3+, M:L 1:2): 298 K; for log β 112 overall stability constant (Ga^3+) / log β 124 overall stability constant (Ga^3+): HypSpec; for logK11 apparent formation constant (Ga^3+, M:L 1:1) / logK12 apparent formation constant (Ga^3+, M:L 1:2): estimated from logβMLH; for Prevailing Species (pH 5.5) / Prevailing Species (pH 7.4): Ga^3+ complex species; for Prevailing Species (pH 7.4): ** possible formation of gallium hydroxide species; for pGa (−log[Ga^3+]free): [Ga^3+]total = 1 μM, [L]total = 10 μM, pH 7.4, 25 °C
Experimental: as §1
Hydroxide species, such as [Ga(OH)2]^+, were taken into account for calculations. The hydrolysis constants for Ga^3+ are as follows: logβ1,1,0 = −3.93; logβ2,1,0 = −7.73; logβ3,1,0 = −12.38; logβ4,1,0 = −15.96; logβ32,13,0 = −66.3; logβ3,1,0(s) = −3.54 [43]; pGa is defined as (−log[Ga^3+]free) and is calculated at specific conditions (Ga^3+total = 1 μM, Ltotal = 10 μM, pH 7.4, 25 °C). For the calculation of the iron(III) overall stability constants, the presence of [Fe(OH)]^2+, [Fe(OH)2]^+ and [Fe(OH)3] species was taken into account.

[7] = calculated from logβ values, * = keto–enol moiety dissociation

| logβ124(Fe) [1] | logβ011 overall protonation constant [3] | logβ012 overall protonation constant [3] | logβ013 overall protonation constant [3] | IC50 [4] [µM] | Stability: percentage of the residual ligand after 4 h [5] [%] | Stability ranking (residual ligand after 4 h) [5] | log β 112 overall stability constant (Ga^3+) [6] | log β 124 overall stability constant (Ga^3+) [6] | logK11 apparent formation constant (Ga^3+, M:L 1:1) [6] | logK12 apparent formation constant (Ga^3+, M:L 1:2) [6] | Prevailing Species (pH 5.5) [6] | Prevailing Species (pH 7.4) [6] | pGa (−log[Ga^3+]free) [6] | Compound | also measured |
| --- | --- | --- | --- | --- | --- | --- | --- | --- | --- | --- | --- | --- | --- | --- | --- |
| 58.6 (4) | 10.44 (3) | 20.45 (2) | 29.58 (4) | 32 | 52 | 5 | 28.54 (3) | 57.00 (1) | 8.09 | 16.1 | [Ga(H2L)2]^+ | [Ga(H2L)2]^+ | 23.2 | 2-((4Z,6E)-5-hydroxy-7-(4-hydroxyphenyl)-4-((E)-3-(4-hydroxy-3-ethoxyphenyl) acryloyl) hepta-4,6-dien-1-yl)isoindoline-1,3-dione [Compound 5] | GI50 ([2]; HCT116, 48 h of treatment): 8.76 µM; pKa1 [3, 7]: 9.13 (6); pKa2 [3, 7]: 10.01 (5); pKa3 [3, 7]: 10.44 (3) |
| 56.2 (2) | 10.78 (4) | 20.44 (6) | 29.44 (6) | 20 | 42 | 7 | 28.48 (5) | 55.33 (5) | 8.04 | 14.45 | [Ga(H2L)2]^+ | [Ga(H2L)2]^+ | 21.5 | COc1cc(/C=C/C(=O)C(CCCN2C(=O)c3ccccc3C2=O)C(=O)/C=C/c2ccc(O)c(OC)c2)ccc1O [Compound 4] | LogK apparent stability constant of transmetalation (logβ124(Fe) − logβ124(Ga)) ([1]; Fe^3+ + [Ga(H2L)2]^+ exchange): 0.9(3); GI50 ([2]; Homo sapiens, HCT-116, HCT116, 48 h of treatment): 5.36 µM; pKa ([3]; calculated from logβ values, * = keto–enol moiety dissociation, read-out: pKa1): 9; pKa ([3]; calculated from logβ values, * = keto–enol moiety dissociation, read-out: pKa2): 9.66; pKa ([3]; calculated from logβ values, * = keto–enol moiety dissociation, read-out: pKa3): 10.8 |
